For data set [1] the following is noted: rcm bond, DCM, 50.0 °C.
The conditions of data set [2]: rcm bond, Grubbs II, 50.0 °C.
Data set [3] concerns the target T1, recombinant human FAAH enzyme (rFAAH) (Homo sapiens, UniProt O00519).
T1 sequence (O00519 1-579): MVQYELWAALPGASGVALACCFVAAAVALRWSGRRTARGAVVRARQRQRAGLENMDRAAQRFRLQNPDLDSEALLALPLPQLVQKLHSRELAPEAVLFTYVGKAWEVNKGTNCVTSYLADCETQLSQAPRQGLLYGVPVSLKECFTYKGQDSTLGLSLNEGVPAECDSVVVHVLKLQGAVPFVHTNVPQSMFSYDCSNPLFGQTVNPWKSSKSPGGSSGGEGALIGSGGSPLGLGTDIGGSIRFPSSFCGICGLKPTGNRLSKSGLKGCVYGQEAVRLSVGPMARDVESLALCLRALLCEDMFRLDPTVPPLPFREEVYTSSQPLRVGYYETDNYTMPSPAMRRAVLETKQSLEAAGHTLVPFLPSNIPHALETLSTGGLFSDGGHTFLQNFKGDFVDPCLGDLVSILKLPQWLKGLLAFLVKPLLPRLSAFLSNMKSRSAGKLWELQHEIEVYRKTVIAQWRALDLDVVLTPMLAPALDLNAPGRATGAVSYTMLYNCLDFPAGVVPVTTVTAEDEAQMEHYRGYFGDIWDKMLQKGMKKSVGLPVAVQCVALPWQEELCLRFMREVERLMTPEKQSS
Kind of data set: Direct prodrug cleavage with recombinant human FAAH enzyme (rFAAH): d3-Cr release and d3-Crn cyclization. It counts as biochemical. The note with it: 200 μM prodrug, 3 h; result in words. The method, then:
(§1) For assessment of the ability of prodrugs to release creatine, and to release creatine preferentially to unwanted cyclization to creatinine, d3-labeled (deuterium labeled methyl group) prodrugs are incubated with brain homogenates (e.g., mouse, human) specially prepared to preserve FAAH activity or with rFAAH for direct cleavage study. The use of d3-labelled prodrugs is essential in order to distinguish prodrug-derived creatine (d3-creatine) from high concentrations of endogenous (non-labeled) creatine. […] Prodrugs are tested at final concentrations of 20 μM and 200 μM. Approximately 3-4 mg of homogenate is used for each reaction. Co-factor (NADPH) is included at a final concentration of 1 mM. FAAH activity is confirmed by conversion of 7-amino-4-methyl Coumarin-Arachidonamide to 7-amino-4-methyl Coumarin by fluorescent assay. Negative controls include incubations without brain homogenate/rFAAH (but with NADPH) or 65° C. heat inactivated brain homogenate/rFAAH to assess non-enzymatic prodrug cleavage under the conditions of the assay and FAAH inhibitor […] at the concentration of 1 μM. Prodrug incubations are prepared by addition of 8 μL of prodrug stock solution (500 or 5000 μM in DMSO or DMSO/methanol) to assay buffered, followed by addition of brain homogenate/rFAAH. […] The samples are centrifuged at 15890×g for 10 minutes at 4° C., followed by transfer of the supernatants for storage at −20° C. pending LC-MS/MS analysis. Sample supernatants are analyzed by LC-MS/MS for determination of d3-prodrug, d3-creatine and d3-creatinine levels.
(§2) Deuterated creatine prodrugs were tested in 3 different in vitro assays to assess d3-creatine (d3-Cr) release and cyclization to form d3-creatinine (d3-Crn). These assays were 1) direct cleavage with recombinant human FAAH enzyme (rFAAH), 2) cleavage in mouse brain homogenates (MBH), and 3) human brain homogenates (HBH).
(§3) Creatine prodrug cleavage efficiency was determined by percentage of net d3-Cr release in μM (positive reaction subtracted from negative control of no brain homogenate/rFAAH or inactivated brain homogenate/rFAAH) over nominal input concentration of 200 μM prodrug at 3 h. Propensity for creatinine cyclization was determined by percentage of d3-Crn generated in μM in positive reaction over nominal input concentration of 200 μM prodrug at 3 h.

Data set [4] in a line: Chemical stability in phosphate buffered saline (PBS). It counts as physicochemical. The note with it: Table 2A, 50 μM prodrug. In a few lines: (§4)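 Incubations used 50 μM compound at 37 °C in phosphate buffered saline, fasted simulated intestinal fluid without pancreatin, or fasted simulated gastric fluid without pepsin.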
Another data set concerns ARPE-19 cells. Put plainly: Creatine prodrug uptake and d3-creatine release in ARPE-19 cells (Table 4A). It counts as cell-based, human. The note with it: 50 μM, 6 h, cytosol fraction, corrected for total protein. The method, then:
At the end of the incubation, supernatant will be collected from each well to assess prodrug recovery. Cells are then washed 3× with PBS. Plates, prodrugs in supernatant, prodrugs in serum-free medium are stored at −80° C. until harvest (within 5 days). On the day of extraction, 130 uL of lysis buffer (10 mM Tris pH 7.4) with EDTA-free protease inhibitors is added to each well and cells are removed using a cell scraper. Lysates are further homogenized using a handheld pestle and then centrifuged at 16,000 g, […], for 10 minutes to collect cytosol fraction. Pellets will be stored at −80° C. until further analysis. A 4× volume of stop solution (80% ACN/20% water) will be added to the cytosol fraction, supernatant and medium. Samples will be centrifuged at 15,890 g (13,000 rpm) at 4° C. for 10 mins. Supernatant will be collected and stored at −80° C. within 5 days prior to LC-MS/MS analysis. Dosing solutions for each prodrug (10 μM) will be assayed to verify concentration. Cells alone with vehicle will serve as controls to assess background signal for LC-MS/MS. Two independent runs of experiment will be conducted.
Nine fatty acid amide creatine prodrugs were tested in human ARPE-19 cells to assess prodrug uptake and d3-Cr release inside the cells. 50 μM of prodrug was incubated in culture medium with the cells and the cells were harvested at 6 h. Quantitation of prodrugs, d3-Cr (d3-creatine) and d3-Cm (d3-creatinine) in the cytosol fraction was corrected for total protein concentration.

Data set [5] in a line: Chemical stability in simulated gastric fluid (SGF) without pepsin. Type of data set: physicochemical. The note with it: Table 2A, 50 μM prodrug. Summed up:
as §4

Data set [6] can be described thus: Prodrug cleavage in human brain homogenates (HBH): d3-Cr release and d3-Crn cyclization. The note with it: 200 μM prodrug, 3 h, % of nominal input. Type of data set: in vitro ADME. The method, then:
as §1, §2, §3

Read-outs that look alike come from different tables or passages of the source.

`CC1CC=CCCCCCCCC(=O)NC(=NC(=O)OC(C)(C)C)N(C)CC(=O)O1` (stereo not drawn) gave a ring closure, isolated yield in data set [1] (from [2H]C([2H])([2H])N(CC(=O)OC(C)CC=C)C(=NC(=O)OC(C)(C)C)NC(=O)CCCCCCCC=C, 18-membered ring, Grubbs II, 2.0 h, 2 steps) of 53%.

On to `CN1CC(=O)OC(C)(C)CC=CCCCCCCCC(=O)NC1=NC(=O)OCc1ccccc1`, for which the ring closure, isolated yield in data set [1] (from [2H]C([2H])([2H])N(CC(=O)OC(C)(C)CC=C)/C(=N\C(=O)OCc1ccccc1)NC(=O)CCCCCCCC=C, 18-membered ring, Grubbs II (10 mol%), 2.0 mM, 2.0 h) came to 79%.

On to `CN1CC(=O)OC(C)(C)CCCC=CCCC(=O)NC1=NC(=O)OCc1ccccc1`, for which the ring closure, isolated yield in data set [1] (from [2H]C([2H])([2H])N(CC(=O)OC(C)(C)CCCC=C)C(=NC(=O)OCc1ccccc1)NC(=O)CCC=C, 15-membered ring, Grubbs II) was found to be 50%.

The compound `[2H]C([2H])([2H])N(C(N)=NC(=O)OCc1ccccc1)N(CC(=O)O)C(=N)NC(=O)CCCCCC=C` returned a ring closure, isolated yield in data set [1] (the molecule shown is the open-chain precursor, 17-membered ring, Grubbs II (10 mol%), 2.4 mM) of 33%.

For the compound `[2H]C([2H])([2H])N1CC(=O)OC(C)(C)CC=CCCCCCCCC(=O)N/C1=N/C(=O)OCc1ccccc1`, in data set [2] (from [2H]C([2H])([2H])N(CC(=O)OC(C)(C)CC=C)/C(=N\C(=O)OCc1ccccc1)NC(=O)CCCCCCCC=C, dichloromethane, 2.0 mM), the ring closure, yield of all isomers amounted to 79%.

In data set [2] (from [2H]C([2H])([2H])N(CC(=O)OC(C)C=C)/C(=N\C(=O)OC(C)(C)C)NC(=O)CCCCCCCC=C, DCM, 2.28 mM), `[2H]C([2H])([2H])N1CC(=O)OC(C)C=CCCCCCCCC(=O)N/C1=N/C(=O)OC(C)(C)C` (stereo not drawn) returned a ring closure, yield of all isomers of 77%.

`[2H]C([2H])([2H])N1CC(=O)OC(CC)/C=C/CCCCCCCC(=O)N/C1=N/C(=O)OC(C)(C)C` (stereo not drawn) registered a ring closure, yield of all isomers in data set [2] (from [2H]C([2H])([2H])N(CC(=O)OC(C=C)CC)/C(=N\C(=O)OC(C)(C)C)NC(=O)CCCCCCCC=C, DCM, 2.82 mM) of 86%.

In data set [1] (from [2H]C([2H])([2H])N(CC(=O)OC1(CCC=C)CCOC1)/C(=N\C(=O)OCc1ccccc1)NC(=O)CCCCCC=C, 17-membered ring, Grubbs II (10 mol%), 1.95 mM, 2.0 h), `[2H]C([2H])([2H])N1CC(=O)OC2(CC/C=C/CCCCCC(=O)N/C1=N/C(=O)OCc1ccccc1)CCOC2` (stereo not drawn) gave a ring closure, isolated yield of 78%.

`[2H]C([2H])([2H])N1CC(=O)OC2(CC/C=C/CCCCCC(=O)NC1=NC(=O)OCc1ccccc1)CCOC2` (stereo not drawn) displayed a ring closure, yield of all isomers in data set [2] (from [2H]C([2H])([2H])N(CC(=O)OC1(CCC=C)CCOC1)C(=NC(=O)OCc1ccccc1)NC(=O)CCCCCC=C, dichloromethane, 1.95 mM) of 78%.

For `[2H]C([2H])([2H])N1CC(=O)OC2(CCC=CCCCCCC(=O)N/C1=N/C(=O)OCc1ccccc1)CCC2`, the ring closure, yield of all isomers in data set [2] (from [2H]C([2H])([2H])N(CC(=O)OC1(CCC=C)CCC1)/C(=N\C(=O)OCc1ccccc1)NC(=O)CCCCCC=C, dichloromethane, 2.4 mM) was 33%.

`[2H]C([2H])([2H])N1CC(=O)OC2(CCC=CCCCCCC(=O)NC1=NC(=O)OCc1ccccc1)CCCC2` displayed a ring closure, yield of all isomers in data set [2] (from [2H]C([2H])([2H])N(CC(=O)OC1(CCC=C)CCCC1)C(=NC(=O)OCc1ccccc1)NC(=O)CCCCCC=C, dichloromethane, 1.95 mM) of 84%.

Consider `[2H]C([2H])([2H])N1CC(=O)OCCCC/C=C\CCCCCCCC(=O)N/C1=N/C(=O)OC(C)(C)C`, for which the ring closure, isolated yield in data set [1] (from [2H]C([2H])([2H])N(CC(=O)OCCCCC=C)C(=NC(=O)OC(C)(C)C)NC(=O)CCCCCCCC=C, 20-membered ring, Grubbs II) worked out at 90%.

`[2H]C([2H])([2H])N1CC(=O)OCCCCCCCC/C=C/CCCCCCCC(=O)N/C1=N/C(=O)OCc1ccccc1` registered a ring closure, isolated yield in data set [1] (from [2H]C([2H])([2H])N(CC(=O)OCCCCCCCCC=C)/C(=N\C(=O)OCc1ccccc1)NC(=O)CCCCCCCC=C, 24-membered ring, Grubbs II (10 mol%), 1.79 mM, 2.0 h) of 78%.

`[2H]C([2H])([2H])N1CC(=O)OCCCCCCCC/C=C/CCCCCCCC(=O)NC1=NC(=O)OCc1ccccc1` gave a ring closure, yield of all isomers in data set [2] (from [2H]C([2H])([2H])N(CC(=O)OCCCCCCCCC=C)C(=NC(=O)OCc1ccccc1)NC(=O)CCCCCCCC=C, dichloromethane, 1.79 mM) of 78%.

On to `Cl.[2H]C([2H])([2H])N(CC(=O)OC(C)C)C(=N)NC(=O)CCCCCCC/C=C\CCCCCCCC` [Compound 45], for which, in data set [3], the “Prodrug Cleavage rFAAH d3-Crn release (yes/no)” value was “yes” and the “Prodrug Cleavage rFAAH net d3-Cr release (yes/no)” value was “no”. In addition, the “Chemical Stability PBS % T0 at 2 hours at 37 °C.” value in data set [4] is given as 54%. Further, in the data set with ARPE-19 cells, the “d3-Cr, Cellular Uptake” value turned out to be 0.74 nmol/mg protien; the “d3-Crn, Cellular Uptake” value was 1.03 nmol/mg protien; the “prodrug, Cellular Uptake” value is recorded as “BQL”. Moreover, the “Chemical Stability SGF, no enzyme % T0 at 2 hours at 37 °C.” value in data set [5] was 102%. In data set [6], the “Prodrug Cleavage Human BH d3-Crn release” value worked out at 22.0%. Moreover, the “Prodrug Cleavage Human BH net d3-Cr release” value in data set [6] (negative control subtracted) is 0.4%.

For “(Z)-tert-butyl-((E)-17-ethyl-4-trideuteriomethyl-2,7-dioxo-1-oxa-4,6-diazacycloheptadec-15-en-5-ylidene) carbamate”, the ring closure, isolated yield in data set [1] (17-membered ring, Grubbs II (20 mol%), 2.82 mM) turned out to be 86%.

These data come from patent US11332438B2, “Creatine prodrugs, compositions and methods of use thereof” (Ultragenyx Pharmaceutical Inc., priority 2017, dated 2022).
